Experimental data from US4118424A, “Biodegradable insecticides” (priority 1976, dated 1978).
In brackets after ≈: the same amount, converted by molar mass.

Legend:
[1] = test system: Musca domestica (NAIDM strain); experiment: Insect toxicity, Musca domestica NAIDM strain; assay type: in vivo; settings: for LD50: Musca domestica, without PB; for Musca domestica NAIDM (w/PB) LD50: with PB
[2] = test system: Musca domestica Rsp strain; experiment: Insect toxicity, Musca domestica Rsp strain, DDT-resistant; assay type: in vivo; settings: for LD50: Musca domestica, without PB; for Musca domestica Rsp strain w/PB LD50: with PB
Culex fatigans larvae = experiment: Insect toxicity, Culex fatigans larvae; assay type: in vivo; settings: Culex quinquefasciatus
Culex fatigans adults = experiment: Insect toxicity, Culex fatigans adults; assay type: in vivo
[3] = test system: Anopheles albimanus larvae; experiment: Insect toxicity, Anopheles albimanus larvae; assay type: in vivo
[4] = test system: Anopheles albimanus adults; experiment: Insect toxicity, Anopheles albimanus adults; assay type: in vivo
Phormia regina = experiment: Insect toxicity, Phormia regina; assay type: in vivo
Anopheles albimanus = experiment: Persistence on plywood surfaces of test huts, Anopheles albimanus; assay type: in vivo; settings: adult mosquitoes
Method: (§1) The persistence of some of the compounds of the present invention was evaluated and compared with that of ethoxychlor. In these tests, the compounds were applied to the plywood surfaces of test huts and the mortalities of adult mosquitoes contained in the huts were measured to determine the number of weeks that 50% mortality continued to occur.

Culex fatigans = experiment: Persistence on plywood surfaces of test huts, Culex fatigans; assay type: in vivo; settings: adult mosquitoes
Method: as §1

[5] = test system: green sunfish (Lepomis cyanellus); experiment: Green sunfish toxicity over a period of time; assay type: in vivo; settings: initial concentration 0.1 ppm
Description: The compounds of Example III, V, XI, XIV and XXI were further tested and compared with ethoxychlor to determine fish toxicities over a period of time. In these tests, green sunfish (Lepomis cyanellus) were subject to an initial concentration dosage of 0.1 ppm and the number of days that 100 percent mortalities occurred was observed.

Mouse toxicity, LD50 = assay type: in vivo, mice; settings: in vivo
mice = experiment: Mouse toxicity, LD50; assay type: in vivo; settings: versus ethoxychlor
[6] = test system: insects (flies and mosquitoes); experiment: Insecticidal activity, general statement; assay type: in vivo; settings: versus ethoxychlor
Description: Metabolic studies involving insects, mice, and fish and a model ecosystem (such as described in U.S. Pat. No. 3,787,505) and insecticidal activity studies generally involving flies and mosquitoes have shown that both the symmetrical and the asymmetrical compounds of the present invention are effective. Thus, the new compounds can be represented by the general formula: [drawing 3] where R1 is H or Cl and R2 is CH3 or Cl, X and X^1 are the same or different and each is selected from the group consisting of C1 to C3 alkyl groups and C1 to C4 alkoxy groups.

Row | SMILES | LD50 [1] | Musca domestica NAIDM (w/PB) LD50 [1] | LD50 [2] | Musca domestica Rsp strain w/PB LD50 [2] | LC50 (Culex fatigans larvae) | Culex fatigans adults-LC50 (Culex fatigans adults) | LC50 [3] | Anopheles albimanus adults LC50 [4] | LD50 (Phormia regina) | Anopheles albimanus, P50 (number of weeks that at least 50% mortality occurred) (Anopheles albimanus) | Culex fatigans, P50 (number of weeks that at least 50% mortality occurred) (Culex fatigans) | Number of days 100% mortality [5] | LD50 (Mouse toxicity, LD50) | safety to mice relative to ethoxychlor (mice) | insecticidal activity relative to ethoxychlor [6]
1 | CCOc1ccc(C(c2ccc(C)cc2)C(C)Cl)cc1 (stereo not drawn) [Example III] | 39 mg/kg | 10 µg/g | 95 mg/kg | 14 µg/g | 0.08 µg/mL (≈ 0.277 µM) | 10 ug/cm^2 | 0.09 µg/mL (≈ 0.312 µM) | 1.1 ug/cm^2 | 6.75 mg/kg | > 6 weeks | > 8 weeks | 0 days | ≥ 1000 mg/kg | at least five times safer to mice than is ethoxychlor | at least generally comparable to ethoxychlor
2 | Cc1ccc(C(c2ccc(C)cc2)C(C)Cl)cc1 (stereo not drawn) [Example II] | > 500 mg/kg | 24.5 µg/g | > 500 mg/kg | 140 µg/g | 0.22 µg/mL (≈ 0.85 µM) | 9.7 ug/cm^2 | > 1 µg/mL | 6.9 ug/cm^2 | > 250 mg/kg | – | – | – | – | – | –
3 | CCOc1ccc(C(c2ccc(OCC)cc2)C(C)(Cl)Cl)cc1 [Example XIX] | 17.5 mg/kg | 7 µg/g | 90 mg/kg | 23.5 µg/g | 0.094 µg/mL (≈ 0.266 µM) | > 160 ug/cm^2 | 0.041 µg/mL (≈ 0.116 µM) | 49 ug/cm^2 | 24 mg/kg | > 20 weeks | 40 weeks | – | < 300 mg/kg | – | –
4 | CCOc1ccc(C(c2ccc(OC)cc2)C(C)C)cc1 (stereo not drawn) [Example X] | 65 mg/kg | 12 µg/g | 110 mg/kg | 17.5 µg/g | 0.13 µg/mL (≈ 0.457 µM) | 16.5 ug/cm^2 | 0.17 µg/mL (≈ 0.598 µM) | 6.3 ug/cm^2 | 28.5 mg/kg | – | – | – | – | – | –
5 | CCOc1ccc(C(c2ccc(OC)cc2)C(C)Cl)cc1 (stereo not drawn) [IV] | 47 mg/kg | 4.7 µg/g | 100 mg/kg | 4.8 µg/g | 0.15 µg/mL (≈ 0.492 µM) | > 160 ug/cm^2 | 0.15 µg/mL (≈ 0.492 µM) | 27 ug/cm^2 | 12 mg/kg | – | – | – | – | – | –
6 | CCCc1ccc(C(c2ccc(CCC)cc2)C(C)Cl)cc1 (stereo not drawn) [IX] | 55 mg/kg | 45 µg/g | 120 mg/kg | 90 µg/g | 0.145 µg/mL (≈ 0.46 µM) | > 160 ug/cm^2 | 0.068 µg/mL (≈ 0.216 µM) | 17 ug/cm^2 | > 250 mg/kg | – | – | – | – | – | –
7 | CCCc1ccc(C(c2ccc(C)cc2)C(C)Cl)cc1 (stereo not drawn) [VIII] | 65 mg/kg | 29 µg/g | 155 mg/kg | 85 µg/g | 0.18 µg/mL (≈ 0.628 µM) | 12 ug/cm^2 | 0.18 µg/mL (≈ 0.628 µM) | 7.2 ug/cm^2 | 97.5 mg/kg | – | – | – | – | – | –
8 | CCCOc1ccc(C(c2ccc(OCCC)cc2)C(C)Cl)cc1 (stereo not drawn) [VII] | 28 mg/kg | 10 µg/g | 85 mg/kg | 42 µg/g | 0.12 µg/mL (≈ 0.346 µM) | > 160 ug/cm^2 | 0.16 µg/mL (≈ 0.461 µM) | > 160 ug/cm^2 | 42.5 mg/kg | – | – | – | – | – | –
9 | CCCOc1ccc(C(c2ccc(OCC)cc2)C(C)Cl)cc1 (stereo not drawn) [VI] | 15.5 mg/kg | 3.2 µg/g | 25 mg/kg | 5.5 µg/g | 0.05 µg/mL (≈ 0.15 µM) | > 160 ug/cm^2 | 0.075 µg/mL (≈ 0.225 µM) | 14.5 ug/cm^2 | 62.5 mg/kg | – | – | – | – | – | –
10 | CCCOc1ccc(C(c2ccc(OCCC)cc2)C(C)C)cc1 [XIII] | 100 mg/kg | 21.5 µg/g | 185 mg/kg | – | 0.3 µg/mL (≈ 0.919 µM) | > 160 ug/cm^2 | 0.25 µg/mL (≈ 0.766 µM) | > 160 ug/cm^2 | 200 mg/kg | – | – | – | – | – | –
11 | CCCOc1ccc(C(c2ccc(OCC)cc2)C(C)C)cc1 (stereo not drawn) [XII] | 21 mg/kg | 6.5 µg/g | 42 mg/kg | 22.5 µg/g | 0.39 µg/mL (≈ 1.25 µM) | > 160 ug/cm^2 | 0.056 µg/mL (≈ 0.179 µM) | 35 ug/cm^2 | 60 mg/kg | – | – | – | ≥ 1000 mg/kg | at least five times safer to mice than is ethoxychlor | at least generally comparable to ethoxychlor
12 | COc1ccc(C(c2ccc(OC)cc2)C(C)(Cl)Cl)cc1 [XVIII] | 65 mg/kg | 8 µg/g | 155 mg/kg | 9.5 µg/g | 0.061 µg/mL (≈ 0.188 µM) | > 160 ug/cm^2 | 0.18 µg/mL (≈ 0.553 µM) | 1.63 ug/cm^2 | 13.5 mg/kg | – | – | – | – | – | –
13 | Cc1ccc(C(c2ccc(C)cc2)C(C)(Cl)Cl)cc1 [XVII] | 145 mg/kg | 18 µg/g | 270 mg/kg | 7.0 µg/g | 0.2 µg/mL (≈ 0.682 µM) | 8.0 ug/cm^2 | 0.13 µg/mL (≈ 0.443 µM) | 5 ug/cm^2 | 8 mg/kg | – | – | – | – | – | –
14 | CCCCOc1ccc(C(c2ccc(C)cc2)C(C)C)cc1 (stereo not drawn) [XVI] | > 500 mg/kg | 240 µg/g | > 500 mg/kg | > 500 µg/g | > 1 µg/mL | > 160 ug/cm^2 | 0.19 µg/mL (≈ 0.641 µM) | > 160 ug/cm^2 | > 250 mg/kg | – | – | – | – | – | –
15 | CCCOc1ccc(C(c2ccc(C)cc2)C(C)C)cc1 (stereo not drawn) [XV] | 175 mg/kg | 100 µg/g | 370 mg/kg | 220 µg/g | 0.55 µg/mL (≈ 1.95 µM) | > 160 ug/cm^2 | 0.42 µg/mL (≈ 1.49 µM) | 29 ug/cm^2 | 250 mg/kg | – | – | – | – | – | –
16 | CCOc1ccc(C(c2ccc(OCC)cc2)C(C)(C)Cl)cc1 [XXI] | 115 mg/kg | 12 µg/g | 180 mg/kg | 25.5 µg/g | > 1 µg/mL | > 160 ug/cm^2 | > 1 µg/mL | > 160 ug/cm^2 | > 250 mg/kg | – | – | 0 days | ≥ 1000 mg/kg | at least five times safer to mice than is ethoxychlor | at least generally comparable to ethoxychlor
17 | COc1ccc(C(c2ccc(OC)cc2)C(C)(C)Cl)cc1 [XX] | > 500 mg/kg | 12 µg/g | > 500 mg/kg | 26 µg/g | > 1 µg/mL | > 160 ug/cm^2 | > 1 µg/mL | 16 ug/cm^2 | 75 mg/kg | – | – | – | – | – | –
18 | CCOc1ccc(C(c2ccc(OCC)cc2)C(Cl)(Cl)Cl)cc1 [ethoxychlor, reference compound] | – | – | – | – | – | – | – | – | – | > 44 weeks | 8 weeks | 21 days | – | – | –
